Results as given in ChEMBL document CHEMBL5321277, “Discovery and Mechanism Study of SARS-CoV-2 3C-like Protease Inhibitors with a New Reactive Group” (J Med Chem, 2023).

What was measured:
[1] = target: T1, Replicase polyprotein 1ab (Severe acute respiratory syndrome coronavirus 2, UniProt P0DTD1); experiment: Inhibition of N-terminal His6-tagged recombinant full length SARS-CoV-2 3CLpro expressed in Escherichia coli BL21(DE3) using MCA-AVLQSGFR-Lys(Dnp)-Lys-NH2 as fluorogenic substrate preincubated with compound for 10 mins followed by substrate addition by FRET assay
SARS-CoV-2 = experiment: microbe, parasite or virus in culture; settings: Severe acute respiratory syndrome coronavirus 2, B1.617.2 (Delta), Vero C1008, 24 h
Procathepsin L [2] = target: T2, Procathepsin L (Homo sapiens, UniProt P07711); experiment: Inhibition of Cathepsin L (unknown origin) using Z-VVR-AMC as fluorogenic substrate preincubated for 10 mins followed by substrate addition and measured for 10 mins by fluorescence based assay
Target sequence in this assay (P07711 whole entry): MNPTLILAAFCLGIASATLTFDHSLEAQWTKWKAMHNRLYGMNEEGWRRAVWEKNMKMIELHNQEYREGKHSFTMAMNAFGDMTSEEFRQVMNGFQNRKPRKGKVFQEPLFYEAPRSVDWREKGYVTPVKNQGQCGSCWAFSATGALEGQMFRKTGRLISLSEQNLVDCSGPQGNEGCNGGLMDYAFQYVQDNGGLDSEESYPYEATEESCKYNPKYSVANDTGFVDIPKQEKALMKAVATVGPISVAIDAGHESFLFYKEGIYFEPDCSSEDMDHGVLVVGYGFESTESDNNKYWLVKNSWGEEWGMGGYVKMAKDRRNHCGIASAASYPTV

Chymotrypsin = Chymotrypsin (Homo sapiens, UniProt Q99895+P17538+P40313+Q6GPI1); experiment: Inhibition of Chymotrypsin (unknown origin) using N-succinyl-AAPF-AMC as fluorogenic substrate preincubated for 10 mins followed by substrate addition and measured for 10 mins by fluorescence based assay; assay type: protein assay
[3] = target: Replicase polyprotein 1ab (Severe acute respiratory syndrome coronavirus 2) (UniProt P0DTD1); experiment: Inhibition of N-terminal His6-tagged recombinant full length SARS-CoV-2 3CLpro expressed in Escherichia coli BL21(DE3) assessed as Kobs, ratio of Kinact/Ki using MCA-AVLQSGFR-Lys(Dnp)-Lys-NH2 as fluorogenic substrate incubated for 3 hrs by FRET assay
Caspase-6 = target: T3, Caspase-6 (Homo sapiens, UniProt P55212); experiment: Inhibition of Caspase-6 (unknown origin)
T3 sequence (P55212 whole entry): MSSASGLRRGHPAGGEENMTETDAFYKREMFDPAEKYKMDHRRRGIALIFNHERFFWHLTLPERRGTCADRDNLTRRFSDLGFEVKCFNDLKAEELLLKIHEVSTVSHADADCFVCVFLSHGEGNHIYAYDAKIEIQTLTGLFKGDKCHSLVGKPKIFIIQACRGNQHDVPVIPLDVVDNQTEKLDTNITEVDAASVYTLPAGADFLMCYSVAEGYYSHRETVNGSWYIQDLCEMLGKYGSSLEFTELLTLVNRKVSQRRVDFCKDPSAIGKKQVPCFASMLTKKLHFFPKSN

Cathepsin G = target: T4, Cathepsin G (Homo sapiens, UniProt P08311); experiment: Inhibition of Cathepsin G (unknown origin) measured for 1 to 2 hrs by fluorescence based assay
T4 sequence (P08311 whole entry): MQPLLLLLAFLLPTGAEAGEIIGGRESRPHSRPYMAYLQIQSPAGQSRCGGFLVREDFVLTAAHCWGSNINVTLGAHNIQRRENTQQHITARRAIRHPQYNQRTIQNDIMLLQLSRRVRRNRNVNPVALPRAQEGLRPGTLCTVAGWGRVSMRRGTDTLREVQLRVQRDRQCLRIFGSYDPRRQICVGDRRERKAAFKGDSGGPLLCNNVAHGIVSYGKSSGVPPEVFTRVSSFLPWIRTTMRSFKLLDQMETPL

[4] = target: T1, Replicase polyprotein 1ab; experiment: Inhibition of SARS-CoV-2 PLpro using RLRGG-AMC as fluorogenic substrate preincubated with compound for 30 mins followed by substrate addition by fluorescence based microplate reader assay
[5] = target: T1, Replicase polyprotein 1ab; experiment: Inhibition of N-terminal His6-tagged recombinant full length SARS-CoV-2 3CLpro expressed in Escherichia coli BL21(DE3) assessed as inhibition constant using MCA-AVLQSGFR-Lys(Dnp)-Lys-NH2 as fluorogenic substrate incubated for 3 hrs by FRET assay
Cathepsin B = Cathepsin B (Homo sapiens, UniProt P07858); experiment: Inhibition of Cathepsin B (unknown origin) using Z-RR-AMC as fluorogenic substrate preincubated for 10 mins followed by substrate addition and measured for 10 mins by fluorescence based assay
Procathepsin L [6] = target: T2, Procathepsin L; experiment: Inhibition of Cathepsin L (unknown origin) using Z-VVR-AMC as fluorogenic substrate at 20 uM preincubated for 10 mins followed by substrate addition and measured for 10 mins by fluorescence based assay; settings: time 20.0 min
Target sequence in this assay (P07711 114-333 limits assumed): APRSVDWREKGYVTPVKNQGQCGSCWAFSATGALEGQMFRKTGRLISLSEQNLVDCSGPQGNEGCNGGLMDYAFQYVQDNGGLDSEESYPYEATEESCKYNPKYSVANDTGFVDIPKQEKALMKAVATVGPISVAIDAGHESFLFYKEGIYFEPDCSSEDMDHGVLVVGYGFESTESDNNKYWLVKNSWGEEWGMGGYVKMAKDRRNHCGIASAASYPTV

Question: How did the IC50 [1] turn out when `N#CSCC(=O)N1c2ccccc2Sc2ccc(C(F)(F)F)cc21` was run?
Answer: 4.6 µM

Question: What about the EC50 (SARS-CoV-2) of the same molecule?
Answer: 3.14 µM

Question: Which results are given for `N#CSCC(=O)N1c2ccccc2Sc2ccc(C#N)cc21`?
Answer: IC50 (Procathepsin L [2]): > 100 µM; IC50 (Chymotrypsin): > 100 µM; Kobs [3]: 1670 M⁻¹ s⁻¹; IC50 (Caspase-6): > 50 µM; IC50 [1]: 0.322 µM; IC50 (Cathepsin G): > 50 µM; IC50 [4]: > 100 µM; Ki [5]: 18.1 µM; IC50 (Cathepsin B): > 50 µM

Question: `N#CSCC(=O)N1c2ccccc2Sc2ccccc21` was tested. Which IC50 [1] did it give?
Answer: 1.85 µM

Question: For `N#CSCC(=O)N1c2ccccc2Oc2ccccc21`, which IC50 [1] is on record?
Answer: 3.96 µM

Question: And the EC50 (SARS-CoV-2)?
Answer: 5.38 µM

Question: For `CCC(=O)c1ccc2c(c1)N(C(=O)CSC#N)c1ccccc1S2`, which IC50 [1] is on record?
Answer: 3.33 µM

Question: Which IC50 [1] does the source give for `CCSc1ccc2c(c1)N(C(=O)CSC#N)c1ccccc1S2` here?
Answer: 2.64 µM

Question: How did the IC50 [1] turn out when `COc1ccc2c(c1)N(C(=O)CSC#N)c1ccccc1S2` was run?
Answer: 2.9 µM

Question: How did the IC50 [1] turn out when `CC(=O)c1ccc2c(c1)N(C(=O)CSC#N)c1ccccc1S2` was run?
Answer: 1.06 µM

Question: What does the source list for `N#CSCC(=O)N1c2ccccc2CCc2ccccc21`?
Answer: IC50 (Chymotrypsin): > 100 µM; Kobs [3]: 327 M⁻¹ s⁻¹; IC50 (Caspase-6): > 50 µM; IC50 [1]: 2.21 µM; IC50 (Cathepsin G): > 50 µM; IC50 [4]: > 100 µM; Ki [5]: 43.6 µM; IC50 (Cathepsin B): > 50 µM; inhibition (Procathepsin L [6]): 70.3%

Question: Which results are given for `N#CSCC(=O)N1c2ccccc2CCc2ccc(Cl)cc21`?
Answer: IC50 [1]: 0.478 µM; EC50 (SARS-CoV-2): 2.5 µM; Ki [5]: 24.9 µM

Question: For `N#CSCC(=O)N1c2ccccc2Sc2ccc(Cl)cc21`, which IC50 [1] is on record?
Answer: 0.524 µM
